Assay results: US7960378B2, “Therapeutic compounds” (Allergan, Inc., priority 2008, dated 2011)

Key:
Assay type in all cases: in vivo
[1] = tested on: lashes and adjacent hairs of the eyelids; assay: Lash and adjacent hair changes in glaucoma patients treated in one eye; conditions: glaucoma patient treated in only one eye
Excerpt: In the course of treating patients having glaucoma, treatment may only be appropriate in one eye. […] The lash appearance on the lids of the treated eyes would have appeared quite attractive if it represented a bilateral phenomenon. As a result of its asymmetric nature, the long lashes on one side could be construed as disturbing from a cosmetic standpoint. A systemic examination was preformed as a result of the asymmetric phenomenon. It soon became apparent that this altered appearance was not an isolated finding. […] Definite differences could be identified to varying degrees in the lashes and adjacent hairs of all patients who were taking the drug on a unilateral basis for longer than 6 months.
The changes in the lashes were apparent on gross inspection in several patients once attention was focused on the issue. In those with light colored hair and lashes, the differences were only seen easily with the aid of the high magnification and lighting capabilities of the slit lamp biomicroscope. In the course of glaucoma follow-up examination, attention is generally immediately focused on the eye itself. As a result of the high power magnification needed only one eye is seen at a time and the eye is seen at a high enough power that the lashes are not in focus. […]

normotensive dogs = assay: IOP in normotensive dogs; conditions: versus baseline
[2] = tested on: laser-induced hypertensive monkeys; assay: IOP in laser-induced hypertensive monkeys; conditions: versus baseline

Row | Structure (SMILES) | lash appearance, treated eye versus non-treated eye [1] | intraocular pressure (IOP) (normotensive dogs) | IOP [2]
1 | CCNC(=O)CCC/C=C\C[C@@H]1[C@@H](/C=C/[C@@H](O)CCc2ccccc2)[C@H](O)C[C@@H]1O [bimatoprost] | longer, thicker, and fuller in the treated eye than in the non-treated eye |  | 
2 | CCC1(C(O)CCC[C@@H]2[C@@H](CCCc3ccc(C(=O)OCCO)s3)[C@H](C#N)C[C@H]2O)CCC1 (stereo partly drawn) [Compound VI] |  | decreases from baseline | decreases from baseline
3 | N#C[C@@H]1C[C@@H](O)[C@H](/C=C/CC(O)C2(c3cccs3)CCC2)[C@H]1CCCCCCC(=O)OCCN1CCOCC1 (stereo partly drawn) [Compound XII] |  | decreases from baseline | decreases from baseline
4 | CCC1(C(O)CCC[C@@H]2[C@@H](CCCCCCC(=O)OCCO)[C@H](C#N)C[C@H]2O)CCC1 (stereo partly drawn) [Compound III] |  | decreases from baseline | decreases from baseline
5 | CCC1(C(O)C/C=C/[C@@H]2[C@@H](CCCc3ccc(C(=O)OCCO)s3)[C@H](C#N)C[C@H]2O)CCC1 (stereo partly drawn) [Compound VII] |  | decreases from baseline | decreases from baseline
6 | CCC1(C(O)C/C=C/[C@@H]2[C@@H](CCCc3ccc(C(=O)OCCN4CCOCC4)s3)[C@H](C#N)C[C@H]2O)CCC1 (stereo partly drawn) [Compound XVI] |  | decreases from baseline | decreases from baseline
7 | N#C[C@@H]1C[C@@H](O)[C@H](/C=C/CC(O)C2(Cc3ccc(Cl)s3)CCC2)[C@H]1C/C=C\CCCC(=O)OCCN1CCOCC1 (stereo partly drawn) [Compound XIII] |  | decreases from baseline | decreases from baseline
8 | N#C[C@@H]1C[C@@H](O)[C@H](CCCC(O)C2(c3cccs3)CCC2)[C@H]1CCCCCCC(=O)OCCO (stereo partly drawn) [Compound VIII] |  | decreases from baseline | decreases from baseline
9 | CCC1(C(O)C/C=C/[C@@H]2[C@@H](C/C=C\CCCC(=O)OCCN3CCOCC3)[C@H](C#N)C[C@H]2O)CCC1 (stereo partly drawn) [Compound IX] |  | decreases from baseline | decreases from baseline
10 | CCC1(C(O)CCC[C@@H]2[C@@H](CCCCCCC(=O)OCCN3CCOCC3)[C@H](C#N)C[C@H]2O)CCC1 (stereo partly drawn) [Compound XI] |  | decreases from baseline | decreases from baseline
11 | CCC1(C(O)C/C=C/[C@@H]2[C@@H](C/C=C\CCCC(=O)OCCO)[C@H](C#N)C[C@H]2O)CCC1 (stereo partly drawn) [Compound I] |  | decreases from baseline | decreases from baseline
12 | N#C[C@@H]1C[C@@H](O)[C@H](/C=C/CC(O)C2(c3cccs3)CCC2)[C@H]1C/C=C\CCCC(=O)OCCO (stereo partly drawn) [Compound II] |  | decreases from baseline | decreases from baseline
13 | N#C[C@@H]1C[C@@H](O)[C@H](/C=C/CC(O)C2(Cc3ccc(Cl)s3)CCC2)[C@H]1C/C=C\CCCC(=O)OCCO (stereo partly drawn) [Compound V] |  | decreases from baseline | decreases from baseline
14 | N#C[C@@H]1C[C@@H](O)[C@H](/C=C/CC(O)C2(c3cccs3)CCC2)[C@H]1CCCCCCC(=O)OCCO (stereo partly drawn) [Compound IV] |  | decreases from baseline | decreases from baseline
15 | CCC1(C(O)CCC[C@@H]2[C@@H](CCCc3ccc(C(=O)OCCN4CCOCC4)s3)[C@H](C#N)C[C@H]2O)CCC1 (stereo partly drawn) [Compound XIV] |  | decreases from baseline | decreases from baseline
16 | N#C[C@@H]1C[C@@H](O)[C@H](/C=C/CC(O)C2(c3cccs3)CCC2)[C@H]1C/C=C\CCCC(=O)OCCN1CCOCC1 (stereo partly drawn) [Compound X] |  | decreases from baseline | decreases from baseline
17 | N#C[C@@H]1C[C@@H](O)[C@H](CCCC(O)C2(c3cccs3)CCC2)[C@H]1CCCCCCC(=O)OCCN1CCOCC1 (stereo partly drawn) [Compound XV] |  | decreases from baseline | decreases from baseline
